# A melting point compilation (Tetko et al.; mined from patent text by program, amines drawn as free bases though some values may be those of a salt)
row,Structure (SMILES),melting point [°C]
1,COc1ccc(Cl)cc1C(=N)Nc1cc(Cl)cc(NC(=O)/C=C/c2ccccc2Cl)c1,226 to 228
2,COc1cc(OC)c(SC(C)(C)CC(=O)O)c(OC)c1,103 to 105
3,COCCOc1ccc(NC=C(C#N)C(=O)Nc2cc(OC)c(Cl)cc2Cl)cc1I,209 to 210
4,Cc1ccc(C(=O)CBr)o1,60 to 63
5,CC(C)(CCc1nnn[nH]1)c1ccc(C(=O)Nc2cn3cc(-n4ccnc4)ccc3n2)cc1,266 to 267
6,Cc1ccc(Cl)cc1N1CCN(c2nc(=O)c3cc(C(F)(F)F)cc([N+](=O)[O-])c3s2)CC1,158 to 161
7,CC(C)C(O)=C(C#N)C#N,92 to 93
8,Cc1nc(-n2cc(-c3ccccn3)nn2)sc1C(=O)NCc1ccccc1,184 to 187
9,O=S(=O)(Cl)c1cc(S(=O)(=O)Cl)c(Cl)cc1Cl,104
10,COc1ccc(C(=O)c2ccc(Cl)nc2)c(O)c1,138 to 139
11,CCc1c(OC)nc(OC)nc1C(=O)c1cc(C)cc(C=O)c1,89 to 91
12,CC(=O)Nc1nc2c(s1)-c1c(c(-c3c[nH]cn3)nn1-c1ccccc1Cl)CC2,287 to 288
13,COC(=O)c1ccc2cccc(C#N)c2c1,178 to 182
14,c1ccc(-c2cnc3ncnn3c2)cc1,164 to 167
15,COc1ccc(C(=O)Nc2cc([N+](=O)[O-])ccc2Br)cc1OC,183 to 184
16,O=S(=O)(Cl)c1ccc(Cl)c(CBr)c1Cl,90 to 92
17,CC(=O)N1C(=O)C(C(=O)c2cccs2)c2cc(Cl)ccc21 (stereo not given),168 to 170
18,O=C(Nc1ccc(C(=O)N2Cc3ccccc3Cc3ccccc32)cc1)c1ccccc1OC(F)(F)F,232 to 235
19,O=C1c2ccccc2C(=O)N1Cc1nnc2n1-c1ccc(Cl)cc1C(c1ccccc1F)=CC2,235 to 237
20,COc1ccc(N2CCN(c3c(C)c(C)c4c(c3C)CC(C)(CN(Cc3ccccc3)Cc3ccccc3)O4)CC2)cc1 (stereo not given),168 to 170
21,O=c1cc(-c2ccncc2)oc2ccccc12,144 to 145
22,COc1ccc(Br)c2ccc(C(F)(F)F)nc12,84 to 85
23,CCN(CC)N(C(C)=O)c1nc2cc3nc(N)sc3cc2s1,203 to 205
24,Cn1cc(-c2cccc(C(F)(F)F)c2)c(=O)c(-c2ccc(F)cc2Cl)c1,183 to 186
25,COc1cc(OC)cc(C(=O)P2(=O)Oc3ccccc3-c3ccccc32)c1 (stereo not given),140 to 142

row,Structure (SMILES),melting point [°C]
1,Nc1cc(F)ccc1C(=O)NCc1ccc(Br)cc1F,120 to 121
2,Cc1cc(C(=O)Nc2ccc(S(=O)(=O)C(F)(F)F)cc2Cl)c(O)c(C23CC4CC(CC(C4)C2)C3)c1,203 to 204
3,C[C@@H](n1cnc2cc(-c3ccc(N)cc3)sc2c1=O)[C@](O)(Cn1cncn1)c1ccc(F)cc1F,184 to 186
4,ON=C1Cc2ccccc2C1,145 to 148
5,CC=CCn1c(C(=O)c2cc(C)cc(C#N)c2)c(C(C)C)c(=O)[nH]c1=O,177 to 178
6,CCOc1nc2ccnn2c2ncccc12,162
7,CCCc1nn(-c2ccc(C(F)(F)F)cn2)cc1CCCOc1nn(-c2ccccc2)cc1CC(=O)O,123 to 124
8,CCN(CC)CCCNc1ncc2cc(-c3c(Br)cccc3Br)c(N)nc2n1,226 to 230
9,CCN(CC)c1ccc(C2OC(=O)c3cc(N(C)C)ccc32)cc1 (stereo not given),165 to 166
10,O=C(O)CCC1(c2cccs2)SCCS1,55 to 64
11,Cc1cc(-c2nc3ccccc3[nH]2)n[nH]1,322 to 324
12,CCOC(=O)c1cnn2c(-c3ccsc3)ccnc12,129 to 130
13,COc1ccc(Nc2cc(-c3ccncc3)nc3ccccc23)cc1Cl,280 to 282
14,O=C1NCc2ccccc2N1,142
15,CNC(=NCCS(=O)Cc1nccs1)NC#N (stereo not given),110
16,CC1=CCC(C(=O)O)CC1 (stereo not given),95
17,O=C1N(Cc2noc(C3CC3)n2)c2cccc(Cl)c2C12COc1cc3c(cc12)OCO3 (stereo not given),180 to 182
18,Cc1nc2ccc(N)cc2c(=O)n1C1CCC(=O)NC1=O (stereo not given),314 to 316
19,CS(=O)c1cc(Br)nc(Br)c1 (stereo not given),98 to 100
20,CC1(C)CCC(=O)Nc2cc(OCCCCN3CCN(c4cccc(Cl)c4Cl)CC3)ccc21,106 to 108
21,CN1CCN(c2ccc3nc(-c4ccc(F)cc4)c(-c4ccncc4)n3n2)CC1,250
22,COc1nc2ccccc2cc1C=O,92 to 93
23,Cc1ccc(C(=O)N2CCC(CCN3C(=O)CCc4c(CC5SC(=O)NC5=O)cccc43)CC2)cc1 (stereo not given),60 to 65
24,CCOC(=O)Nc1coc2cc(OCc3ccccc3)ccc12,140
25,O=C1CC2CSc3sc(Br)cc3C2=NN1c1ccc(Cl)cc1 (stereo not given),169 to 170

row,Structure (SMILES),melting point [°C]
1,O=[N+]([O-])c1ccc(SSn2nccn2)c(C(Cl)(Cl)Cl)c1,189
2,COc1cc(Nc2c(C#N)cnc3cc(-c4cccc(CN5CCOCC5)c4)sc23)c(Cl)cc1Cl,205 to 207
3,COc1nccnc1NS(=O)(=O)c1scc(Cl)c1Cl,152
4,COc1cc2c(c(OC)c1OC)-c1ccc([N+](=O)[O-])cc1COC2,161
5,Cc1ccc(C(=O)N[C@H]2CC[C@H](CCN3CCC(c4cccc5c4CCO5)CC3)CC2)cn1,202
6,COC(=O)c1sc2nc(-c3ccccc3)cnc2c1N,197 to 198
7,COc1nsc2nc3ccccc3n12,172 to 175
8,C=CCNc1nc(NCCN)nc2ccc([N+](=O)[O-])cc12,126 to 128
9,O=C1c2ccccc2C(=O)N1CC(=O)N1c2ccccc2N(Cc2ccccc2)C(=O)C2(Cc3ccccc3)CCCC12 (stereo not given),214 to 215
10,Cn1c(C(=O)OC(C)(C)C)c(Br)c2cc(OCc3ccccc3)ccc21,97 to 99
11,Cc1cc(-c2ccc(C(F)(F)F)nc2)nc(-c2cccc(-c3ccc(S(N)(=O)=O)s3)c2)n1,238
12,Cc1cccc(-c2nc(C(C)(C)C)n(C)n2)n1,106
13,N#CCCNC(=O)c1cccc(-c2ccc3c(n2)C(Oc2ccc(Cl)cc2Cl)CC3)c1 (stereo not given),193 to 194
14,[N-]=[N+]=Nc1nc(NC(=O)c2ccccc2)nc2c1ncn2CC(O)CF (racemic),198
15,Clc1ccc(C2CN(C(c3ccccc3)c3ccccc3)C2)cc1,82
16,CCOC(=O)c1cn(CC)c2nc(SC)ncc2c1=O,148
17,CCc1[nH]n(C2CCCC2)c2nc(-c3ccc(Cl)cc3O)nc(=O)c1-2,> 300
18,CNC(=O)C(=NOCF)c1ccccc1OC1CCCCO1 (stereo not given),81
19,CC(=O)c1ccc(OCCCCl)c(O)c1,101 to 103
20,C=C(C)CONC(=O)c1nc(-c2ccc(Cl)c(OC)c2F)cc(N)c1Cl,147 to 149
21,O=[N+]([O-])c1cc(CO)ccc1Sc1nccnc1Cl,110 to 113
22,Nc1nc2ccccc2c2c1ncn2CC1(O)CCOCC1,260 to 262
23,COc1ccc2cc([C@H](C)C(=O)OCC3(C(SN=O)(C4CC4)C4CC4)CCN(C)CC3)ccc2c1,88
24,O=[N+]([O-])c1cc(OC2CCCC2)c(Cl)cc1F,58 to 62.6
25,CCOC(=O)c1cnc2c(c(C)nn2-c2ccccn2)c1O,166 to 169

row,Structure (SMILES),melting point [°C]
1,COC1(c2cc(F)cc(S(=O)(=O)c3ccc4c(c3)OCCC4=NO)c2)CCOCC1,209 to 210
2,COC(=O)/C(=C/C=C/c1cc2cc(Cl)c(Cl)cc2[nH]1)OC,203 to 204
3,CC1(C)CC(=O)NC2CCCCC2N1CCO (stereo not given),154 to 156
4,COc1cccc(NC(=O)C(C#N)C(=O)c2nn(-c3ccccc3)c3c2Cc2ccccc2-3)c1 (stereo not given),280 to 284
5,O=C(O)CN1C(=O)C(Cl)=C(Cl)C1=O,191 to 192
6,Nc1cc(F)cc2cc(C(=O)NCC(F)(F)C(F)(F)C(F)(F)F)cnc12,202 to 204
7,O=C(Nc1ccc(Cl)cc1)NS(=O)(=O)c1ccc2c(c1)CCO2,190 to 194
8,CC(=O)OC(C)(C)C(=O)Nc1c(C(=O)c2cc(C)ccn2)[nH]c2cc(Cl)ccc12,222 to 223
9,COc1ccc(C(=O)Nc2ccncc2)c2c1oc1ccccc12,215
10,COc1cccc2c(CC(=O)OCC(=O)CCc3ccccc3)coc12,68 to 69
11,C[C@@H](NC(=O)[C@@H](NCc1nccn1C)C(C)(C)C)C(C)(C)C,131 to 132
12,CC(C)(C)Cc1ccc(C(=O)O)cc1,191 to 193
13,CCCOC(C(=O)O)c1ccc2c(c1)C(C)(C)CCC2(C)C (racemic),84 to 86
14,O=C(CCl)Nc1ccc2c(c1NC(=O)c1ccno1)C(=O)c1ccccc1C2=O,212 to 213
15,CCCCCCCN(CCCCCSc1nc(-c2ccccc2)c(-c2ccccc2)[nH]1)c1ncnc2nc[nH]c12,58 to 60
16,Cn1c(=O)c2c(N)nc(N)nc2n(C)c1=O,> 300
17,COc1cc2c(OC)c3c(c(-c4ccc5c(c4)OCO5)c2cc1OC)C(=O)OC3,256 to 258
18,CC(C)c1c(C=CC2CC(O)CC(O)O2)n(CC2CCCCC2)c(=O)c2ccccc12 (mixture of isomers),207 to 209
19,CCN(CC)CCSC1=C(C#N)C(c2ccccc2)(c2cccc(C(F)(F)F)c2)C(=O)N1 (stereo not given),127
20,CNC(=O)Nc1ccc(C2=NN(C(=O)NC)C(C)Cc3cc4c(cc32)OCO4)cc1 (stereo not given),181 to 183
21,CCOc1cccc(NC(=O)N2CCc3cc(SC)c(C(F)(F)F)cc32)c1,233 to 234
22,CCOc1cc([C@@H](CCN(O)C(N)=O)N2Cc3cccc(NC(=O)C(C)C)c3C2=O)ccc1OC,137 to 139
23,COc1ccc2c(C(=S)N(C)CC(N)=O)c(F)ccc2c1C(F)(F)F,222 to 224
24,CCN(CC)CCOCCC1CCCCN1C(=O)N1c2ccccc2C(=O)Nc2cccnc21 (stereo not given),134 to 136
25,CC(C)N1CCC(CN2CCN(CC3CCN(C(C)C)CC3)C2=C(C#N)C#N)CC1,172 to 174
